Target: Human RET kinase (Homo sapiens (Human), UniProt P07949, C634W)
Assay: RET kinase cell-based mechanistic assay (constitutive RET kinase phosphorylation in TT cells)
Settings: 2 h treatment, phospho-RET ELISA
Method: RET Kinase Cell-Based Mechanistic Assay
The potency of the compounds of the invention were tested for its ability to inhibit constitutive RET kinase phosphorylation in cell-based assay. TT cells (ATCC CRL-1803), a medullary thyroid cancer cell line with constitutively activated RET kinase, were maintained in 150 cm^2 dishes in F12 Kaighn's medium, 10% fetal bovine serum, 1× Glutamax, 1× non-essential amino acids, 1× Pen/Strep antibiotics at 37° C. in 5% carbon dioxide. 1.0E5 TT cells/well were plated in a 96-well cell culture plate and allowed to adhere overnight. […] Plates were washed 4× with 200 μL of 1×PBS; 0.05% Tween-20, 100 μL of TMB (3,3′,5,5″-tetramethylbenzidine) substrate (Cell Signaling #7004) was added, incubated for 10 minutes at 37° C., 100 μL of Stop solution (Cell Signaling #7002) was added and absorbance read on a spectrophotometer at 450 nm. […]

Chain of Human RET kinase (P07949 29-1114 C634W): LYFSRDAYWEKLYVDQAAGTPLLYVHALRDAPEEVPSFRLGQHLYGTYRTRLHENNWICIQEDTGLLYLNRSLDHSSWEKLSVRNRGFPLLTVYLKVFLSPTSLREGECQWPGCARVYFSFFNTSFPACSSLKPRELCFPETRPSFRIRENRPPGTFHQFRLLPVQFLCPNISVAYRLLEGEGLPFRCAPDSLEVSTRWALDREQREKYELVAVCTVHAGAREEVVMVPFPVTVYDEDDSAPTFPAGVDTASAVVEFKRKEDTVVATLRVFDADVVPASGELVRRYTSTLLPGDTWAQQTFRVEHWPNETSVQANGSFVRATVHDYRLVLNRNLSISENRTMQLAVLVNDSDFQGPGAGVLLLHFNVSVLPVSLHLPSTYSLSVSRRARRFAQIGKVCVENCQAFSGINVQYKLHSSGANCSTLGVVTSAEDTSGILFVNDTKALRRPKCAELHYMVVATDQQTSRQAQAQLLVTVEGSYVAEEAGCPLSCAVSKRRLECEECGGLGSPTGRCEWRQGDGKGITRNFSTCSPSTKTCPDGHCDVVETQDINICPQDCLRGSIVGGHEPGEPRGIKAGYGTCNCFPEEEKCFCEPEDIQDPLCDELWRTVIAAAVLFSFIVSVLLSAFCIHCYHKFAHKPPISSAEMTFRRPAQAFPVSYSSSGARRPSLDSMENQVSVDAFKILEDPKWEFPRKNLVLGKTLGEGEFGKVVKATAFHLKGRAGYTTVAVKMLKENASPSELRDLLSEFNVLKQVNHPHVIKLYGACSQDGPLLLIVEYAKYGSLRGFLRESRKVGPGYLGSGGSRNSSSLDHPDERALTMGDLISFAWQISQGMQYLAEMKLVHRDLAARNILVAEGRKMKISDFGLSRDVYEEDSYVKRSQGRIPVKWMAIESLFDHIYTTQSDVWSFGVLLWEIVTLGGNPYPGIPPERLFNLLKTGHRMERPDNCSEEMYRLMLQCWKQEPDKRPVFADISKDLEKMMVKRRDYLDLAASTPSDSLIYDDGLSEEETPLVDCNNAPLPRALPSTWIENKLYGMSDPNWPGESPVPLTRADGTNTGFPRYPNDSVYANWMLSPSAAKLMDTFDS

Row | IC50 | SMILES
1 | 10 to 100 nM | CCOc1cc(=O)[nH]cc1-c1ccc(CC(=O)Nc2cc(OCCN(C)C)cc(C(F)(F)F)c2)c(F)c1 [Example 2, N-(3-(2-(dimethylamino)ethoxy)-5-(trifluoromethyl)phenyl)-2-(4-(4-ethoxy-6-oxo-1,6-dihydropyridin-3-yl)-2-fluorophenyl)acetamide]
2 | 10 to 100 nM | CCOc1cc(=O)[nH]cc1-c1ccc(CC(=O)Nc2cc(C(=O)NCCN(C)C)cc(C(F)(F)F)c2)c(F)c1 [Example 1, N-(2-(dimethylamino)ethyl)-3-(2-(4-(4-ethoxy-6-oxo-1,6-dihydropyridin-3-yl)-2-fluorophenyl)acetamido)-5-(trifluoromethyl)benzamide]

— US9918974B2, “Pyridone derivatives as rearranged during transfection (RET) kinase inhibitors” (GlaxoSmithKline Intellectual Property Development Limited, priority 2014, dated 2018)
